Laboratory results published in patent US8865623B2, “Herbicidally active cyclic diones and derivatives thereof, processes for their preparation, compositions, and method of controlling weeds” (Syngenta Limited, priority 2009, dated 2014).

Columns and labels:
Type in all cases: in vivo
Avena fatua (AVEFA) [1] = test: Post-emergence herbicidal activity, glasshouse pot test; details: Avena fatua, 312 h, rate 250 g/ha, evaluated after 13 days, read-out: Post-emergence activity AVEFA (100=total damage to plant; 0=no damage to plant)
Method in brief: (§1)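 Visual damage (0 = no damage, 100 = total damage) was rated 13 days after spraying. Treatment was applied one day after sowing for pre-emergence, or after 8 days of cultivation for post-emergence, as aqueous spray of an acetone/water (50:50) formulation with 0.5% Tween 20.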

Lolium perenne (LOLPE) [2] = test: as above; details: Lolium perenne, 312 h, rate 250 g/ha, evaluated after 13 days, read-out: Post-emergence activity LOLPE (100=total damage to plant; 0=no damage to plant)
Method in brief: as §1

[3] = system: Alopecurus myosuroides (ALOMY); test: as above; details: Alopecurus myosuroides, 312 h, rate 250 g/ha, evaluated after 13 days, read-out: Post-emergence activity ALOMY (100=total damage to plant; 0=no damage to plant)
Method in brief: as §1

[4] = system: Echinochloa crus-galli (ECHCG); test: as above; details: Echinochloa crus-galli, 312 h, rate 250 g/ha, evaluated after 13 days, read-out: Post-emergence activity ECHCG (100=total damage to plant; 0=no damage to plant)
Method in brief: as §1

Avena fatua (AVEFA) [5] = test: Pre-emergence herbicidal activity, glasshouse pot test; details: Avena fatua, 312 h, Rate 250 g/ha, evaluated after 13 days, read-out: Pre-emergence activity AVEFA (100=total damage to plant; 0=no damage to plant)
Method in brief: as §1

Lolium perenne (LOLPE) [6] = test: as above; details: Lolium perenne, 312 h, Rate 250 g/ha, evaluated after 13 days, read-out: Pre-emergence activity LOLPE (100=total damage to plant; 0=no damage to plant)
Method in brief: as §1

[7] = system: Alopecurus myosuroides (ALOMY); test: as above; details: Alopecurus myosuroides, 312 h, Rate 250 g/ha, evaluated after 13 days, read-out: Pre-emergence activity ALOMY (100=total damage to plant; 0=no damage to plant)
Method in brief: as §1

[8] = system: Echinochloa crus-galli (ECHCG); test: as above; details: Echinochloa crus-galli, 312 h, Rate 250 g/ha, evaluated after 13 days, read-out: Pre-emergence activity ECHCG (100=total damage to plant; 0=no damage to plant)
Method in brief: as §1

SMILES | pest or weed control at 250 g/ha (Avena fatua (AVEFA) [1]) [%] | pest or weed control at 250 g/ha (Lolium perenne (LOLPE) [2]) [%] | pest or weed control at 250 g/ha [3] [%] | pest or weed control at 250 g/ha [4] [%] | pest or weed control at 250 g/ha (Avena fatua (AVEFA) [5]; pre-emergence) [%] | pest or weed control at 250 g/ha (Lolium perenne (LOLPE) [6]; pre-emergence) [%] | pest or weed control at 250 g/ha ([7]; pre-emergence) [%] | pest or weed control at 250 g/ha ([8]; pre-emergence) [%] | pest or weed control at 250 g/ha (Avena fatua (AVEFA) [1]; glasshouse) [%] | pest or weed control at 250 g/ha (Lolium perenne (LOLPE) [2]; glasshouse) [%] | pest or weed control at 250 g/ha ([3]; glasshouse) [%] | pest or weed control at 250 g/ha ([4]; glasshouse) [%] | pest or weed control at 250 g/ha (Avena fatua (AVEFA) [5]; pre-emergence spray) [%] | pest or weed control at 250 g/ha (Lolium perenne (LOLPE) [6]; pre-emergence spray) [%] | pest or weed control at 250 g/ha ([7]; pre-emergence spray) [%] | pest or weed control at 250 g/ha ([8]; pre-emergence spray) [%]
CC1(C)OC(C)(C)C(O)=C(c2cc(Oc3nc4ccccc4s3)ccc2C2CC2)C1=O [Example A-365] | 10 | 100 | 100 | 100 | 0 | 90 | 80 | 100 |  |  |  |  |  |  |  | 
CCc1ccc(Oc2ncc(Cl)cc2Cl)cc1C1=C(O)CC(C)(C)CC1=O [Example A-84] |  |  |  |  |  |  |  |  | 50 | 90 | 100 | 100 | 60 | 100 | 70 | 100
CCc1ccc(Oc2ccc([N+](=O)[O-])c(Cl)c2)cc1C1=C(O)[C@@H]2CC[C@](C)(C1=O)C2(C)C [Example A-316] |  |  |  |  |  |  |  |  | 80 | 40 | 50 | 100 | 60 | 100 | 70 | 100
CCc1ccc(Oc2nc3ccccc3s2)cc1C1=C(O)CC(C)(C)CC1=O [Example A-286] |  |  |  |  |  |  |  |  | 90 | 100 | 100 | 100 | 40 | 100 | 90 | 100
CCc1ccc(Oc2ccc(F)c(C(F)(F)F)c2)cc1C1=C(O)C(C)(C)OC(C)(C)C1=O [Example A-178] |  |  |  |  |  |  |  |  | 40 | 30 | 40 | 80 | 0 | 0 | 10 | 10
CCc1ccc(Oc2nc(F)c(F)c(C)c2F)cc1C1=C(O)C(C)(C)OC(C)(C)C1=O [Example A-59] |  |  |  |  |  |  |  |  | 70 | 70 | 80 | 100 | 70 | 100 | 80 | 100
CCc1ccc(Oc2ccc([N+](=O)[O-])c(Cl)c2)cc1C1=C(O)CC(C)(C)CC1=O [Example A-284] |  |  |  |  |  |  |  |  | 0 | 60 | 60 | 100 | 0 | 70 | 60 | 100
CCc1ccc(Oc2ccc(Br)cc2[N+](=O)[O-])cc1C1=C(O)C(C)(C)OC(C)(C)C1=O [Example A-227] |  |  |  |  |  |  |  |  | 60 | 70 | 70 | 90 | 20 | 60 | 30 | 80
CCc1ccc(Oc2ccc(OC(F)(F)F)cc2)cc1C1=C(O)[C@H]2CC[C@H](C2)C1=O [Example A-248] |  |  |  |  |  |  |  |  | 100 | 100 | 100 | 100 | 80 | 100 | 90 | 100
CCc1ccc(Oc2nc(F)c(F)c(Cl)c2F)cc1C1=C(O)C(C)(C)OC(C)(C)C1=O [Example A-151] |  |  |  |  |  |  |  |  | 20 | 30 | 20 | 70 | 20 | 50 | 30 | 70
CCc1ccc(Oc2ccc(C(F)(F)F)cc2)cc1C1=C(O)C(C)(C)OC(C)(C)C1=O [Example A-97] |  |  |  |  |  |  |  |  | 90 | 90 | 100 | 100 | 90 | 100 | 80 | 100
CCc1ccc(Oc2ccc(Cl)cn2)cc1C1=C(O)C(C)(C)OC(C)(C)C1=O [Example A-147] |  |  |  |  |  |  |  |  | 70 | 90 | 80 | 100 | 20 | 80 | 50 | 100
CCc1ccc(Oc2cc(F)cc(F)n2)cc1C1=C(O)C(C)(C)OC(C)(C)C1=O [Example A-156] |  |  |  |  |  |  |  |  | 20 | 20 | 30 | 50 | 0 | 20 | 20 | 60
CCc1ccc(Oc2ccc(Br)cc2F)cc1C1=C(O)CC(C)(C)CC1=O [Example A-49] |  |  |  |  |  |  |  |  | 70 | 90 | 90 | 100 | 40 | 100 | 90 | 100
CCc1ccc(Oc2ccc(F)c(Cl)c2)cc1C1=C(O)C(C)(C)OC(C)(C)C1=O [Example A-24] |  |  |  |  |  |  |  |  | 70 | 70 | 70 | 100 | 40 | 90 | 30 | 90
CCc1ccc(Oc2ccc(Br)c(Cl)c2)cc1C1=C(O)C(C)(C)OC(C)(C)C1=O [Example A-10] |  |  |  |  |  |  |  |  | 90 | 100 | 100 | 100 | 20 | 30 | 0 | 90
CC1(C)OC(C)(C)C(O)=C(c2cc(Oc3ccc(Br)cc3)ccc2C2CC2)C1=O [Example A-351] | 10 | 100 | 90 | 100 | 10 | 90 | 60 | 100 |  |  |  |  |  |  |  | 
CCc1ccc(Oc2ccc(Br)cc2)cc1C1=C(O)CCCC1=O [Example A-41] |  |  |  |  |  |  |  |  | 10 | 30 | 30 | 90 | 20 | 60 | 40 | 100
